According to paper doi:10.1101/2025.04.25.650653, “Hierarchical small molecule inhibition of MYST acetyltransferases” (bioRxiv, 2025):
pIC50: −log10 of the molar value. Several values for one entry are separate records, joined by “and”; a condition that tells them apart may be missing. Equal entries are not always repeated.

Assays:
[1] = target: KAT7 (Homo sapiens, UniProt O95251); assay: Competitive chemoproteomic profiling (H3K14-CoA affinity capture, western blot and LC-MS/MS); conditions: 0.1 μM, HeLa nuclear extracts
Sequence of KAT7 (O95251 whole entry): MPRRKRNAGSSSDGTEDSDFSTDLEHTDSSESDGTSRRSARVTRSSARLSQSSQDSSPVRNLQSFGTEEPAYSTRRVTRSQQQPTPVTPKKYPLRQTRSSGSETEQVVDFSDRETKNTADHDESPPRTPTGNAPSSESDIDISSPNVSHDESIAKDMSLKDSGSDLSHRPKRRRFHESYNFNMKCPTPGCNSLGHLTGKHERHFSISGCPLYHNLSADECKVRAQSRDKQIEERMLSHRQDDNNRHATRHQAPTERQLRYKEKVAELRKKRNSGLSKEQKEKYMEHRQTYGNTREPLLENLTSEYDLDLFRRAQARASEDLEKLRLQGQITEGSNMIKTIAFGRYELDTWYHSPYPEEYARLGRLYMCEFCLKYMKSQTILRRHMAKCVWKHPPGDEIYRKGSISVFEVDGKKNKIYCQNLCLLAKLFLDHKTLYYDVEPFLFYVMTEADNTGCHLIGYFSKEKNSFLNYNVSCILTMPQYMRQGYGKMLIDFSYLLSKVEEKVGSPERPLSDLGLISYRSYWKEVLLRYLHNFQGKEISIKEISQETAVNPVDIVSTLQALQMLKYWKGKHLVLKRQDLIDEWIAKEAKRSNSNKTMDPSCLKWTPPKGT

[2] = system: H3K14Ac (KAT7); assay: Histone biomarker bottom-up LC-MS/MS, MCF-7; type: cell-based; conditions: for Ratio, H3_9_17 K9me1K14ac / Ratio, H3_9_17 K9me2K14ac / Ratio, H3_9_17 K14ac: Replicates 1-3
[3] = system: H3K18Ac (KAT3A/B); assay: Histone biomarker bottom-up LC-MS/MS, MCF-7; type: cell-based; conditions: for Ratio, H3_18_26 K18ac: Replicates 1-3
[4] = system: MYST KAT complexes (KAT7, KAT8, KAT5) in HeLa nuclear extracts; assay: Competitive chemoproteomic profiling (H3K14-CoA affinity capture) of native MYST complexes; type: binding
Protocol: Proteins belonging to multiple KAT complexes are characterized by distinct competition profiles.
The beads were washed three times
during the bead coating step.
hours with end-over-end mixing.
After magnetic separation for 3 minutes,
conditions, and both eluates were combined.
Membranes were probed with antibodies

[5] = system: H4K16Ac (KAT8); assay: Histone biomarker bottom-up LC-MS/MS, MCF-7; type: cell-based; conditions: for Ratio, H4_4_17 K16ac: Replicates 1-3
[6] = system: H3K23Ac (KAT6A/B); assay: MYST KAT biomarker western blot, BT-549; type: cell-based; conditions: BT-549 cells, 24 h, near the GI50 dose
Description: (§1) Figure 6. […] (C) Dependence of breast cancer cell lines on non-MYST KATs (EP300, CREBBP), MYST KATs (KAT6A, KAT6B, KAT7, KAT8, KAT5), and a MYST KAT complex member (BRPF1) derived from on DepMap CRISPR screening data. BT-549 is highlighted in orange. Lower CERES score indicates a greater dependence of the cell line on the specified gene. […] Data is representiative of n=2 biological replicates.
(§2) Analysis of DepMap-derived CRISPR screening data supports the notion that while breast cancer models vary widely in their requirement for EP300 and CREBBP, BT-549 appears to a fairly independent line. By comparison, targeting of KAT6 and KAT7 exerts modest effects on growth while KAT8 is highly inhibitory, consistent with its designation as an essential gene (Fig. 6C).[47], [48] […] KAT3 (H3K18Ac) and KAT5 (H2A.ZK4/K7Ac) were unaffected. […]
(§3) distinguish between tightly grouped and diffuse clusters, compactness was quantified by calculating the average pairwise Euclidean distance between all points within each cluster. Clusters with lower average […]
(§4) were visualized as two-dimensional scatter plots with points colored according to cluster assignments, […]
(§5) Binding structures between FOXK2 (Uniprot: Q01167) and candidate interactors identified from our chemoproteomic data were predicted using AlphaPulldown4 v0.30.7,4 with multiple sequence alignments generated via ColabFold Search v1.5.5 on the NIH HPC Biowulf Cluster. Five models were generated per protein-protein pair without using templates or paired MSAs. Local Interaction Scores (LIS) and Local Interaction Area (LIA) were calculated according to previously described formulas.5 Structural visualizations were generated using ChimeraX v1.8.
(§6) Composite scoring of candidate FOXK2-protein interactions
(§7) To prioritize potential interactions, we developed a composite scoring system integrating multiple AlphaFold metrics (mpDockQ/pDockQ, LIS, and LIA), building upon established approaches for protein-protein interaction analysis.6 Each interaction was evaluated against minimum acceptable thresholds (1610 for LIA, 0.073 for LIS, and 0.175 for mpDockQ/pDockQ) and assigned a weighted constant (k): 1.0 for passing all three thresholds, 0.75 for two, 0.5 for one, and zero for none. Metrics were then min-max normalized, summed, and multiplied by the weighted constant to generate final composite scores for ranking candidate interactions. All data, code, and analysis scripts can be accessed as described in Data […]
(§8) Prediction of interface contacts […]
(§9) P61964), were further analyzed to identify interface residue-residue contacts using both AlphaFold2 and AlphaFold3. For AlphaFold2 analysis7 we calculated Euclidean distances between alpha carbon coordinates of residues using Sci-Py's Distance Matrix Module, filtering for interactions under 8Å. […]

[7] = system: H3K18Ac (KAT3); assay: MYST KAT biomarker western blot, BT-549; type: cell-based; conditions: BT-549 cells, 24 h, 0.1-30 μM
Description: as §1, §2, §3, §4, §5, §6, §7, §8, §9

[8] = system: H2A.ZK4/K7Ac (KAT5); assay: MYST KAT biomarker western blot, BT-549; type: cell-based; conditions: BT-549 cells, 24 h, 0.1-30 μM
Description: as §1, §2, §3, §4, §5, §6, §7, §8, §9

[9] = system: H3K14Ac (KAT7); assay: MYST KAT biomarker western blot, BT-549; type: cell-based; conditions: BT-549 cells, 24 h, near the GI50 dose
Description: as §1, §2, §3, §4, §5, §6, §7, §8, §9

[10] = system: H4K16Ac (KAT8); assay: MYST KAT biomarker western blot, BT-549; type: cell-based; conditions: BT-549 cells, 24 h, near the GI50 dose
[11] = Homo sapiens, MCF7, MCF-7 cells, 24 h
[12] = KAT marker KAT7, PF-9363 0.1 v 30
[13] = KAT marker KAT7, PF-9363 (0.1 mM)
[14] = KAT marker KAT7, PF-9363 (30 mM)

COc1cccc(OC)c1S(=O)(=O)Nc1noc2cc(Cn3cccn3)cc(OC)c12 [PF-9363]
co-competition of KAT7 JADE complex members [1]: caused co-competition of JADE2, MEAF6, and ING4/5 | pIC50 [2, 11]: ~6.00 | Fold-change 0.1 v 30, H3_9_17 K9me1K14ac [2, 12]: 5.55 | Fold-change 0.1 v 30, H3_9_17 K9me2K14ac [2, 12]: 4.54 | Fold-change 0.1 v 30, H3_9_17 K14ac [2, 12]: 4.58 | Average ratio, H3_9_17 K9me1K14ac [2, 13]: 0.0218 | Average ratio, H3_9_17 K9me2K14ac [2, 13]: 0.1048 | Average ratio, H3_9_17 K14ac [2, 13]: 0.0358 | Average ratio, H3_9_17 K9me1K14ac [2, 14]: 0.0039 | Average ratio, H3_9_17 K9me2K14ac [2, 14]: 0.0231 | Average ratio, H3_9_17 K14ac [2, 14]: 0.0078 | Ratio, H3_9_17 K9me1K14ac ([2]; KAT marker KAT7, dose 0.1): 0.01996 and 0.02377 and 0.02171 | Ratio, H3_9_17 K9me2K14ac ([2]; KAT marker KAT7, dose 0.1): 0.087 and 0.123 and 0.1045 | Ratio, H3_9_17 K14ac ([2]; KAT marker KAT7, dose 0.1): 0.03031 and 0.04488 and 0.03226 | Ratio, H3_9_17 K9me1K14ac ([2]; KAT marker KAT7, dose 1): 0.01133 and 0.012 and 0.01281 | Ratio, H3_9_17 K9me2K14ac ([2]; KAT marker KAT7, dose 1): 0.0545 and 0.07102 and 0.04882 | Ratio, H3_9_17 K14ac ([2]; KAT marker KAT7, dose 1): 0.02498 and 0.02856 and 0.02464 | Ratio, H3_9_17 K9me1K14ac ([2]; KAT marker KAT7, dose 10): 0.004127 and 0.006046 and 0.005821 | Ratio, H3_9_17 K9me2K14ac ([2]; KAT marker KAT7, dose 10): 0.02988 and 0.02204 and 0.03567 | Ratio, H3_9_17 K14ac ([2]; KAT marker KAT7, dose 10): 0.01535 and 0.01122 and 0.01409 | Ratio, H3_9_17 K9me1K14ac ([2]; KAT marker KAT7, dose 30): 0.004797 and 0.003603 and 0.003398 | Ratio, H3_9_17 K9me2K14ac ([2]; KAT marker KAT7, dose 30): 0.01983 and 0.02491 and 0.02445 | Ratio, H3_9_17 K14ac ([2]; KAT marker KAT7, dose 30): 0.006424 and 0.008372 and 0.008647 | Fold-change 0.1 v 30, H3_18_26 K18ac ([3]; KAT marker KAT3A/B, PF-9363 0.1 v 30): 1.39 | Average ratio, H3_18_26 K18ac ([3]; KAT marker KAT3A/B, PF-9363 (0.1 mM)): 0.0171 | Average ratio, H3_18_26 K18ac ([3]; KAT marker KAT3A/B, PF-9363 (30 mM)): 0.0123 | Ratio, H3_18_26 K18ac ([3]; KAT marker KAT3A/B, dose 0.1): 0.01666 and 0.01829 and 0.01641 | Ratio, H3_18_26 K18ac ([3]; KAT marker KAT3A/B, dose 1): 0.01874 and 0.01672 and 0.01619 | Ratio, H3_18_26 K18ac ([3]; KAT marker KAT3A/B, dose 10): 0.01831 and 0 and 0.01771 | Ratio, H3_18_26 K18ac ([3]; KAT marker KAT3A/B, dose 30): 0 and 0.0193 and 0.01765 | modulation of H3K18Ac ([3]; MCF-7 cells, 24 h, any concentration (0.1-30 μM)): not found to modulate | competition of capture of KAT8-containing MSL and NSL complexes and KAT5-containing NuA4 complex ([4]; 1 and 10 μM, HeLa nuclear extracts): competed capture of all CORUM-annotated members | sensitivity of KAT complexes, general order ([4]; HeLa nuclear extracts, chemoproteomic competition): KAT7 > KAT8 > KAT5 | hierarchical inhibition order of native KAT complexes ([4]; chemoproteomic profiling and histone acetylation biomarkers): KAT6A/B > KAT7 >> KAT8 > KAT5 | pIC50 [5, 11]: ~5.00 | Ratio, H4_4_17 K16ac ([5]; KAT marker KAT8, PF-9363 0.1): 0.3188 and 0.3244 and 0.3222 | Ratio, H4_4_17 K16ac ([5]; KAT marker KAT8, PF-9363 1): 0.2629 and 0.2802 and 0.2713 | Ratio, H4_4_17 K16ac ([5]; KAT marker KAT8, PF-9363 10): 0.1497 and 0 and 0.16 | Ratio, H4_4_17 K16ac ([5]; KAT marker KAT8, PF-9363 30): 0 (2×) and 0.08259 | Average ratio, H4_4_17 K16ac ([5]; KAT marker KAT8, PF-9363 (0.1 mM)): 0.3218 | Average ratio, H4_4_17 K16ac ([5]; KAT marker KAT8, PF-9363 (30 mM)): 0.0275 | Fold-change 0.1 v 30, H4_4_17 K16ac ([5]; KAT marker KAT8, average ratio 0.1 v 30): 11.69 | inhibition of KAT6A/B (H3K23Ac) [6]: near complete inhibiton | effect on KAT3 (H3K18Ac) [7]: unaffected | effect on KAT5 (H2A.ZK4/K7Ac) [8]: unaffected | inhibition of KAT7 (H3K14Ac) [9]: near complete inhibiton | inhibition of KAT8 (H4K16Ac) [10]: near complete inhibiton
